Patent US20240180872A1, “METHODS AND COMPOUNDS OF CANNABIDIOL, MELATONIN AND AKBA FOR TREATING PANCREATIC CANCER” (priority 2021, published 2024)

Legend:
[1] = cited from earlier work
[2] = test system: pancreatic adenocarcinoma associated genes; assay: TaqMan Array gene expression in MIAPaCa-2, normalized for GAPDH; assay type: cell-based, Human; conditions: Mia-PACA-2, 24 hs, CBD 3.8, MLT 200, AKBA 7.5 micrograms/ml
Description: Total RNA from untreated or CBD, MLT, AKBA alone and in combination treated cell lines was extracted using Rneasy Mini kit (Qiagen, Milan, Italy). One microgram of total RNA from each sample was subjected to reverse transcription in a total volume of 20 μL using the High-Capacity cDNA Archive Kit (Applied Biosystem, Foster City, […], USA) according to the instructions. cDNAs were analyzed by qRT-PCR performed using an IQ5 Multicolor Real time PCR Detection system. Quantitative real-time gene expression was performed with the TaqMan® Array Human Pancreatic Adenocarcinoma 96-well Plate, containing 92 assays to pancreatic adenocarcinoma associated genes and 4 assays to candidate endogenous control genes, was purchased (Thermo Fisher, Grand Island, NY, USA) and used to evaluate the treatments in modulating PDAC-related genes (Table 1). Measurement of different housekeeping genes (GAPDH; HPRT1; GUSB) on the samples was used to normalize mRNA content. The gene expression levels of treated cell lines were expressed as relative fold compared with untreated or vehicle-treated cells.
To elucidate the molecular events induced by CBD, MLT and AKBA alone and in combination, 92 genes involved in PDAC progression and aggressiveness were evaluated by Taqman Array. Both cell lines were treated with CBD, MLT and AKBA alone and in combination, and the molecular pathways of PDAC associated gene were evaluated.
Target mRNA levels were normalized for GAPDH expression.

[3] = normalized for GAPDH, Akt pathways
[4] = normalized for GAPDH, Akt-pathways
[5] = normalized for GAPDH, DNA repair
[6] = normalized for GAPDH, NfkB pathways
[7] = normalized for GAPDH, Ras pathways
[8] = normalized for GAPDH, TGF patways
[9] = normalized for GAPDH, TGF-patways
[10] = normalized for GAPDH, angiogenesis
[11] = normalized for GAPDH, apoptosis
[12] = normalized for GAPDH, cell cycle
[13] = normalized for GAPDH, inflammation
[14] = normalized for GAPDH, proliferation

**Q.** Which results are given for `CC(=O)O[C@@H]1CC[C@@]2(C)[C@@H](CC[C@]3(C)[C@@H]2C(=O)C=C2[C@@H]4[C@@H](C)[C@H](C)CC[C@]4(C)CC[C@]23C)[C@@]1(C)C(=O)O` [AKBA, (3R,4R,4aR,6aR,6bS,8aR,11R,12S,12aR,14aR,14bS)-3-acetyloxy-4,6a,6b,8a,11,12,14b-heptamethyl-14-oxo-1,2,3,4a,5,6,7,8,9,10,11,12,12a, 14a-tetradecahydropicene-4-carboxylic acid]?
**A.** solubility ([1]; 1:2 solution of DMSO:PBS (pH 7.2)): approximately 0.3 mg/ml; solubility in aqueous buffers ([1]; aqueous buffers): sparingly soluble; GAPDH relative expression ([2]; GAPDH is the normalizer): 1.00; PK3CB relative expression [2, 3]: 0.19; PK3CD relative expression [2, 3]: 0.06; AKT1 relative expression [2, 4]: 0.18; AKT2 relative expression [2, 4]: 0.49; AKT3 relative expression [2, 4]: 0.00; IGF1 relative expression [2, 4]: 0.00; PK3CA relative expression [2, 4]: 0.02; PK3R1 relative expression [2, 4]: 0.04; BRCA2 relative expression [2, 5]: 0.12; MDM2 relative expression [2, 5]: 0.05; TP53 relative expression [2, 5]: 0.35; HSP90AA1 relative expression ([2]; normalized for GAPDH, Heat sock protein): 0.26; NFKB1 relative expression [2, 6]: 0.12; NFKB2 relative expression [2, 6]: 0.12; REL relative expression [2, 6]: 0.09; RELA relative expression [2, 6]: 0.11; RELB relative expression [2, 6]: 0.13; RHOA relative expression [2, 6]: 0.33; RHOB relative expression [2, 6]: 0.06; BRAF relative expression [2, 7]: 0.22; E2F1 relative expression [2, 7]: 0.17; E2F3 relative expression [2, 7]: 0.08; E2F4 relative expression [2, 7]: 0.22; EGF relative expression [2, 7]: 0.00; EGFR relative expression [2, 7]: 0.22; ELK1 relative expression [2, 7]: 0.13; ERBB2 relative expression [2, 7]: 0.08; GRB2 relative expression [2, 7]: 0.46; HBEGF relative expression [2, 7]: 0.53; KRAS relative expression [2, 7]: 0.11; MAP2K1 relative expression [2, 7]: 0.12; MAP2K2 relative expression [2, 7]: 0.12; MAPK1 relative expression [2, 7]: 0.72; MAPK3 relative expression [2, 7]: 0.00; RAF1 relative expression [2, 7]: 0.10; RB1 relative expression [2, 7]: 0.17; SOS1 relative expression [2, 7]: 0.11; TGFB2 relative expression [2, 8]: 0.10; TGFB3 relative expression [2, 8]: 0.05; TGFBR1 relative expression [2, 8]: 0.06; SMAD2 relative expression [2, 9]: 0.04; SMAD3 relative expression [2, 9]: 0.22; SMAD4 relative expression [2, 9]: 0.10; TGFA relative expression [2, 9]: 0.02; TGFB1 relative expression [2, 9]: 0.13; TGFBR2 relative expression [2, 9]: 0.09; FIGF relative expression [2, 10]: 0.00; VEGFA relative expression [2, 10]: 0.41; VEGFB relative expression [2, 10]: 0.16; VEGFC relative expression [2, 10]: 0.11; BCL2L1 relative expression [2, 11]: 0.28; BCL2 relative expression [2, 11]: 0.00; BIRC5 relative expression [2, 11]: 0.26; CCNA2 relative expression [2, 12]: 0.12; CCNB1 relative expression [2, 12]: 0.24; CCND1 relative expression [2, 12]: 0.12; CCND2 relative expression [2, 12]: 0.00; CCNE1 relative expression [2, 12]: 0.12; CCNE2 relative expression [2, 12]: 0.10; CDC42 relative expression [2, 12]: 0.02; CDK2 relative expression [2, 12]: 0.12; CDK4 relative expression [2, 12]: 0.30; CDKN1A relative expression [2, 12]: 0.34; CDKN1B relative expression [2, 12]: 0.12; CDKN2A relative expression [2, 12]: 0.14; CDKN2B relative expression [2, 12]: 0.24; CDKN2C relative expression [2, 12]: 0.14; CDKN2D relative expression [2, 12]: 0.06; IL6 relative expression [2, 13]: 0.00; JAK1 relative expression [2, 13]: 1.32; JAK2 relative expression [2, 13]: 0.05; JAK3 relative expression [2, 13]: 0.04; STAT1 relative expression [2, 13]: 0.34; STAT2 relative expression [2, 13]: 0.12; STAT3 relative expression [2, 13]: 0.20; STAT6 relative expression [2, 13]: 0.12; STATSB relative expression [2, 13]: 0.22; MMP1 relative expression ([2]; normalized for GAPDH, invasion): 0.02; MMP2 relative expression ([2]; normalized for GAPDH, invasion): 0.24; MMP3 relative expression ([2]; normalized for GAPDH, invasion): 0.00; MMP7 relative expression ([2]; normalized for GAPDH, invasion): 0.04; MMP9 relative expression ([2]; normalized for GAPDH, invasion): 0.04; PTGS2 relative expression ([2]; normalized for GAPDH, invasion): 0.10; RAC1 relative expression ([2]; normalized for GAPDH, invasion): 0.12; RAC2 relative expression ([2]; normalized for GAPDH, invasion): 0.01; KIT relative expression [2, 14]: 0.00; NOTCH1 relative expression [2, 14]: 0.06; SRC relative expression [2, 14]: 0.15
